Reference: patent US20120016011A1, “RNA Interference Mediated Inhibition of Connective Tissue Growth Factor (CTGF) Gene Expression Using Short Interfering Nucleic Acid (siNA)” (Merck Sharp & Dohme Corp., priority 2009, published 2012)
[invAb] = inverted abasic unit; m = 2'-O-methyl; r = 2'-OH (RNA); f = 2'-fluoro

Tests used:
CTGF mRNA = CTGF mRNA knockdown (Taqman RT-PCR) after siNA transfection of mouse NIH 3T3 cells; format: cell-based; settings: mouse NIH3T3 cells, 10 nM siNA, 24 hrs, average of 3 experiments, vs non-targeting control
Summary of the method: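 Mouse NIH 3T3 cells, 5000/well, transfected 24 h after plating with siNA at 10 nM final using RNAiMax, 24 h exposure without media change. CTGF mRNA by TaqMan RT-qPCR with GAPDH, knockdown via comparative Ct (2^−ΔΔCt) against non-targeting control siNA.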

GAPDH mRNA = GAPDH mRNA reduction (normalizer, check for toxicity) in siNA-transfected NHLF cells; format: cell-based; settings: human NHLF cells, mean ± S.D.
Description: NHLF (Normal human lung fibroblasts; Lonza cat# CC-2512): Cells were cultured at 37° C. in the presence of 5% CO2 and grown in Fibroblast Basal Medium (Lonza cat# CC-3132) supplemented with 2% FBS and growth factors (provided with the kit) and 100 μg/mL of streptomycin and 100 U/mL penicillin.
Cells were plated in all wells of a tissue-culture treated, 96-well plate at a final count of 5000 cells/well in […], of the appropriate culture media. The cells were cultured for 24 hours after plating at 37° C. in the presence of 5% CO2.
After 24 hours, complexes containing siNA and RNAiMax were created as follows: A solution of RNAiMax diluted 33-fold in OPTI-MEM was prepared. In parallel, solutions of the siNAs for testing were prepared to a final concentration of 120 nM in OPTI-MEM. After incubation of RNAiMax/OPTI-MEM solution at room temperature for 5 min, an equal volume of the siNA solution and the RNAiMax solution were added together for each of the siNAs.
This solution was incubated at room temperature for 20 minutes. After incubation, 20 uL of the solution was added to each of the relevant wells. The final concentration of siNA in each well was 10 nM and the final volume of RNAiMax in each well was 0.3 ul.
The time of incubation with the RNAiMax-siNA complexes was 24 hours and there was no change in media between transfection and harvesting, unless otherwise indicated.
A series of probes and primers were used to detect the various mRNA transcripts of the genes of β-Actin (human cell line only), and of CTGF and GAPDH in mouse and human cell lines. All Taqman probes and primers for the experiments here-in described were supplied as pre-validated sets by Applied Biosystems, Inc. (see Table 3).
The assays were performed on an ABI 7900 instrument, according to the manufacturer's instructions. A TaqMan Gene Expression Master Mix (provided in the Cells-to-CT™, Applied Biosystems, Cat # 4399002) was used. The PCR reactions were carried out at 50° C. for 2 min, 95° C. for 20 min followed by 40 cycles at 95° C. for 15 secs and 60° C. for 1 min.
Additionally, only normalized data, which reflects the general health of the cell and quality of the RNA extraction, was examined. This was done by looking at the level of two different mRNAs in the treated cells, the first being the target mRNA and the second being the normalizer mRNA. This allowed for elimination of siNAs that might be potentially toxic to cells rather than solely knocking down the gene of interest. This was done by comparing the Ct for GAPDH in each well relative to the Ct for the entire plate.

| Substance | % KD Mouse (CTGF mRNA) | % Reduction GAPDH mRNA at 10 nM (GAPDH mRNA) |
| --- | --- | --- |
| 48046-DC: siNA duplex; sense SEQ ID NO: 57 B cAcAGcAccAGAAuGuAuA TTB; antisense SEQ ID NO: 58 UAUAcAuucuGGuGcuGuGUU (sense CACAGCACCAGAAUGUAUATT; antisense UAUACAUUCUGGUGCUGUGUU; sense: DNA at AGT, 2'-fluoro at CU, [invAb] at 5' end, 3' end, backbone not given here; antisense: sugars from the 5' end rrrmfmffffmmfmffmfmmm, backbone not given here) | 19 ± 3% | −53 ± 14% |
| 48042-DC: siNA duplex; sense SEQ ID NO: 49 B GAcAuuAAcucAuuAGAcu TTB; antisense SEQ ID NO: 50 AGUcuAAuGAGuuAAuGucUU (sense GACAUUAACUCAUUAGACUTT; antisense AGUCUAAUGAGUUAAUGUCUU; sense: DNA at AGT, 2'-fluoro at CU, [invAb] at 5' end, 3' end, backbone not given here; antisense: sugars from the 5' end rrrffmmfmmmffmmfmffmm, backbone not given here) | 30 ± 4% | −43 ± 32% |
| 48055-DC: siNA duplex; sense SEQ ID NO: 75 B cAAGuuAuuuAAAucuGuu TTB; antisense SEQ ID NO: 76 AACAGAuuuAAAuAAcuuGUU (sense CAAGUUAUUUAAAUCUGUUTT; antisense AACAGAUUUAAAUAACUUGUU; sense: DNA at AGT, 2'-fluoro at CU, [invAb] at 5' end, 3' end, backbone not given here; antisense: sugars from the 5' end rrrmmmfffmmmfmmfffmmm, backbone not given here) | 24 ± 2% | −18 ± 4% |
| 48047-DC: siNA duplex; sense SEQ ID NO: 59 B cGAGuAAuAuGccuGcuAu TTB; antisense SEQ ID NO: 60 AUAGcAGGcAuAuuAcucGUU (sense CGAGUAAUAUGCCUGCUAUTT; antisense AUAGCAGGCAUAUUACUCGUU; sense: DNA at AGT, 2'-fluoro at CU, [invAb] at 5' end, 3' end, backbone not given here; antisense: sugars from the 5' end rrrmfmmmfmfmffmfffmmm, backbone not given here) | 18 ± 3% | −5 ± 14% |
| 48048-DC: siNA duplex; sense SEQ ID NO: 61 B GAuAGcAucuuAuAcGAGu TTB; antisense SEQ ID NO: 62 ACUcGuAuAAGAuGcuAucUU (sense GAUAGCAUCUUAUACGAGUTT; antisense ACUCGUAUAAGAUGCUAUCUU; sense: DNA at AGT, 2'-fluoro at CU, [invAb] at 5' end, 3' end, backbone not given here; antisense: sugars from the 5' end rrrfmfmfmmmmfmffmffmm, backbone not given here) | 21 ± 5% | −2 ± 10% |
